Test [1] concerns Chenopodium spp., Papaver spp., Polygonum spp., Veronica spp. or Viola spp. Description: Post-emergence effect on weeds (greenhouse pot test, visual scoring). It counts as in vivo, monocotyledonous and dicotyledonous weeds. The settings on record: treated at three-leaf stage; visual scoring after about 3 to 4 weeks; application rate of 0.5 kg and less of active substance per hectare.

The test system of test [2] is Cyperus spp., Echinochloa spp., Digitaria spp., Sagitaria spp. and Scirpus spp. Kind of test: Action on harmful plants in rice (paddy rice conditions, visual scoring). It counts as in vivo, typical rice weeds (gramineous and broad-leaved). To be noted: applied into the dammed water, visual scoring about three weeks after application. The procedure, abridged: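 Under paddy conditions with 2-3 cm dammed water, transplanted and sown rice plus weeds were treated at three-leaf stage (E. crus-galli at 1.5 leaves). Pots stayed in greenhouse under optimum growth conditions for the test period, with visual assessment of damage.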

Regarding `CC#Cc1ccc(CNc2nc(N)nc(C(C)(C)F)n2)cc1` [Product P16.1583], the “herbicidal activity post-emergence against harmful plants” value (“herbicidal activity post-emergence” for short) in test [1] is “very good herbicidal activity”. Moreover, the “herbicidal activity against harmful plants which are typical for rice crops” value (“herbicidal activity … for rice crops” for short) in test [2] was “very good herbicidal activity”.

`CC(C)(F)c1nc(N)nc(NCc2cccc(C3CC3)c2)n1` [Product P16.1603]: the “herbicidal activity post-emergence” value in test [1] was “very good herbicidal activity”. In test [2], the “herbicidal activity … for rice crops” value is “very good herbicidal activity”.

Regarding `CC(C)(F)c1nc(N)nc(NCc2ccc(C3CC3)cc2)n1` [Product P16.1604], the “herbicidal activity post-emergence” value in test [1] was “very good herbicidal activity”. For the same compound, the “herbicidal activity … for rice crops” value in test [2] is reported as “very good herbicidal activity”.

For the compound `CC(Nc1nc(N)nc(C(C)(C)F)n1)c1ccc(F)c(C(F)=C(F)F)c1` (stereo not drawn) [Product P17.5], in test [1], the “herbicidal activity post-emergence” value is given as “very good herbicidal activity”. Further, the “herbicidal activity … for rice crops” value in test [2] is reported as “very good herbicidal activity”.

On to `CC(Nc1nc(N)nc(C(C)(C)F)n1)c1cc(F)c(C(F)=C(F)F)c(F)c1` (stereo not drawn) [Product P17.49], for which the “herbicidal activity post-emergence” value in test [1] is “very good herbicidal activity”. Further, the “herbicidal activity … for rice crops” value in test [2] is “very good herbicidal activity”.

With `C#Cc1cc(C(C)Nc2nc(N)nc(C(C)(C)F)n2)ccc1F` (stereo not drawn) [Product P17.309], the “herbicidal activity post-emergence” value in test [1] is given as “very good herbicidal activity”. In addition, the “herbicidal activity … for rice crops” value in test [2] is recorded as “very good herbicidal activity”.

For the compound `C#Cc1ccc(C(C)Nc2nc(N)nc(C(C)(C)F)n2)cc1C` (stereo not drawn) [Product P17.335], the “herbicidal activity post-emergence” value in test [1] is reported as “very good herbicidal activity”. Also, the “herbicidal activity … for rice crops” value in test [2] is recorded as “very good herbicidal activity”.

In the case of `C#Cc1c(C)cc(C(C)Nc2nc(N)nc(C(C)(C)F)n2)cc1C` (stereo not drawn) [Product P17.348], in test [1], the “herbicidal activity post-emergence” value is “very good herbicidal activity”. The “herbicidal activity … for rice crops” value in test [2] is recorded as “very good herbicidal activity”.

Regarding `C#Cc1c(F)cc(C(C)Nc2nc(N)nc(C(C)(C)F)n2)cc1F` (stereo not drawn) [Product P17.352], the “herbicidal activity post-emergence” value in test [1] is on record as “very good herbicidal activity”. Moreover, the “herbicidal activity … for rice crops” value in test [2] is on record as “very good herbicidal activity”.

For the compound `C#Cc1ccc(C(C)Nc2nc(N)nc(C(C)(C)F)n2)cc1C#C` (stereo not drawn) [Product P17.358], in test [1], the “herbicidal activity post-emergence” value is on record as “very good herbicidal activity”. In test [2], the “herbicidal activity … for rice crops” value is listed as “very good herbicidal activity”.

On to `C#Cc1cc(C#C)cc(C(C)Nc2nc(N)nc(C(C)(C)F)n2)c1` (stereo not drawn) [Product P17.369], for which, in test [1], the “herbicidal activity post-emergence” value is “very good herbicidal activity”. Besides, the “herbicidal activity … for rice crops” value in test [2] is recorded as “very good herbicidal activity”.

`CC#Cc1cc(C(C)Nc2nc(N)nc(C(C)(C)F)n2)ccc1F` (stereo not drawn) [Product P17.384]: the “herbicidal activity post-emergence” value in test [1] is recorded as “very good herbicidal activity”. Besides, in test [2], the “herbicidal activity … for rice crops” value is given as “very good herbicidal activity”.

As for `CC#Cc1c(C)cc(C(C)Nc2nc(N)nc(C(C)(C)F)n2)cc1C` (stereo not drawn) [Product P17.424], the “herbicidal activity post-emergence” value in test [1] is “very good herbicidal activity”. The “herbicidal activity … for rice crops” value in test [2] is listed as “very good herbicidal activity”.

For `CC#Cc1c(F)cc(C(C)Nc2nc(N)nc(C(C)(C)F)n2)cc1F` (stereo not drawn) [Product P17.428], the “herbicidal activity post-emergence” value in test [1] was “very good herbicidal activity”. The “herbicidal activity … for rice crops” value in test [2] is recorded as “very good herbicidal activity”.

As for `CC#Cc1cc(C(C)Nc2nc(N)nc(C(C)(C)F)n2)cc(C#CC)c1F` (stereo not drawn) [Product P17.450], the “herbicidal activity post-emergence” value in test [1] is “very good herbicidal activity”. Further, in test [2], the “herbicidal activity … for rice crops” value is recorded as “very good herbicidal activity”.

In the case of `C=C=Cc1c(F)cc(C(C)Nc2nc(N)nc(C(C)(C)F)n2)cc1F` (stereo not drawn) [Product P17.656], the “herbicidal activity post-emergence” value in test [1] was “very good herbicidal activity”. Further, in test [2], the “herbicidal activity … for rice crops” value is “very good herbicidal activity”.

As for `CCCCC#Cc1cc(C(C)Nc2nc(N)nc(C(C)(C)F)n2)ccc1F` (stereo not drawn) [Product P17.688], the “herbicidal activity post-emergence” value in test [1] was “very good herbicidal activity”. Also, the “herbicidal activity … for rice crops” value in test [2] is reported as “very good herbicidal activity”.

For `CCCCC#Cc1c(C)cc(C(C)Nc2nc(N)nc(C(C)(C)F)n2)cc1C` (stereo not drawn) [Product P17.728], the “herbicidal activity post-emergence” value in test [1] is recorded as “very good herbicidal activity”. Also, the “herbicidal activity … for rice crops” value in test [2] was “very good herbicidal activity”.

Take `CC(F)C#Cc1cc(C(C)Nc2nc(N)nc(C(C)(C)F)n2)ccc1F` (stereo not drawn) [Product P17.764]: the “herbicidal activity post-emergence” value in test [1] was “very good herbicidal activity”. For the same compound, the “herbicidal activity … for rice crops” value in test [2] is reported as “very good herbicidal activity”.

As for `CC(O)C#Cc1cc(C(C)Nc2nc(N)nc(C(C)(C)F)n2)ccc1F` (stereo not drawn) [Product P17.840], the “herbicidal activity post-emergence” value in test [1] is recorded as “very good herbicidal activity”. Moreover, the “herbicidal activity … for rice crops” value in test [2] was “very good herbicidal activity”.

For `CC(Nc1nc(N)nc(C(C)(C)F)n1)c1ccc(F)c(C2CC2)c1` (stereo not drawn) [Product P17.916], the “herbicidal activity post-emergence” value in test [1] is given as “very good herbicidal activity”. Also, the “herbicidal activity … for rice crops” value in test [2] is given as “very good herbicidal activity”.

`CC(Nc1nc(N)nc(C(C)(C)F)n1)c1cc(F)c(C2CC2)c(F)c1` (stereo not drawn) [Product P17.960]: the “herbicidal activity post-emergence” value in test [1] was “very good herbicidal activity”. The “herbicidal activity … for rice crops” value in test [2] is given as “very good herbicidal activity”.

Consider `CC(Nc1nc(N)nc(C(C)(C)F)n1)c1cccc(C(F)=C(F)F)c1` (stereo not drawn) [Product P17.1567], for which the “herbicidal activity post-emergence” value in test [1] is reported as “very good herbicidal activity”. Besides, the “herbicidal activity … for rice crops” value in test [2] is on record as “very good herbicidal activity”.

As to `CC(Nc1nc(N)nc(C(C)(C)F)n1)c1ccc(C(F)=C(F)F)cc1` (stereo not drawn) [Product P17.1568], the “herbicidal activity post-emergence” value in test [1] is given as “very good herbicidal activity”. The “herbicidal activity … for rice crops” value in test [2] was “very good herbicidal activity”.

With `C#Cc1cccc(C(C)Nc2nc(N)nc(C(C)(C)F)n2)c1` (stereo not drawn) [Product P17.1579], the “herbicidal activity post-emergence” value in test [1] is “very good herbicidal activity”. Further, the “herbicidal activity … for rice crops” value in test [2] is “very good herbicidal activity”.

In the case of `C#Cc1ccc(C(C)Nc2nc(N)nc(C(C)(C)F)n2)cc1` (stereo not drawn) [Product P17.1580], the “herbicidal activity post-emergence” value in test [1] was “very good herbicidal activity”. Further, the “herbicidal activity … for rice crops” value in test [2] is recorded as “very good herbicidal activity”.

For `CC#Cc1cccc(C(C)Nc2nc(N)nc(C(C)(C)F)n2)c1` (stereo not drawn) [Product P17.1582], in test [1], the “herbicidal activity post-emergence” value is reported as “very good herbicidal activity”. Besides, the “herbicidal activity … for rice crops” value in test [2] is recorded as “very good herbicidal activity”.

Consider `CC#Cc1ccc(C(C)Nc2nc(N)nc(C(C)(C)F)n2)cc1` (stereo not drawn) [Product P17.1583], for which, in test [1], the “herbicidal activity post-emergence” value is reported as “very good herbicidal activity”. The “herbicidal activity … for rice crops” value in test [2] was “very good herbicidal activity”.

Take `CCCCC#Cc1cccc(C(C)Nc2nc(N)nc(C(C)(C)F)n2)c1` (stereo not drawn) [Product P17.1594]: the “herbicidal activity post-emergence” value in test [1] was “very good herbicidal activity”. Further, in test [2], the “herbicidal activity … for rice crops” value is reported as “very good herbicidal activity”.

Consider `CCCCC#Cc1ccc(C(C)Nc2nc(N)nc(C(C)(C)F)n2)cc1` (stereo not drawn) [Product P17.1595], for which the “herbicidal activity post-emergence” value in test [1] is recorded as “very good herbicidal activity”. In test [2], the “herbicidal activity … for rice crops” value is given as “very good herbicidal activity”.

In the case of `CC(F)C#Cc1cccc(C(C)Nc2nc(N)nc(C(C)(C)F)n2)c1` (stereo not drawn) [Product P17.1597], in test [1], the “herbicidal activity post-emergence” value is listed as “very good herbicidal activity”. Also, the “herbicidal activity … for rice crops” value in test [2] was “very good herbicidal activity”.

Take `CC(F)C#Cc1ccc(C(C)Nc2nc(N)nc(C(C)(C)F)n2)cc1` (stereo not drawn) [Product P17.1598]: in test [1], the “herbicidal activity post-emergence” value is “very good herbicidal activity”. Further, in test [2], the “herbicidal activity … for rice crops” value is “very good herbicidal activity”.

For the compound `CC(O)C#Cc1cccc(C(C)Nc2nc(N)nc(C(C)(C)F)n2)c1` (stereo not drawn) [Product P17.1600], the “herbicidal activity post-emergence” value in test [1] was “very good herbicidal activity”. Also, in test [2], the “herbicidal activity … for rice crops” value is “very good herbicidal activity”.

Take `CC(O)C#Cc1ccc(C(C)Nc2nc(N)nc(C(C)(C)F)n2)cc1` (stereo not drawn) [Product P17.1601]: the “herbicidal activity post-emergence” value in test [1] was “very good herbicidal activity”. The “herbicidal activity … for rice crops” value in test [2] is reported as “very good herbicidal activity”.

For the compound `CC(Nc1nc(N)nc(C(C)(C)F)n1)c1cccc(C2CC2)c1` (stereo not drawn) [Product P17.1603], in test [1], the “herbicidal activity post-emergence” value is recorded as “very good herbicidal activity”. Also, in test [2], the “herbicidal activity … for rice crops” value is on record as “very good herbicidal activity”.

Turning to `CC(Nc1nc(N)nc(C(C)(C)F)n1)c1ccc(C2CC2)cc1` (stereo not drawn) [Product P17.1604], the “herbicidal activity post-emergence” value in test [1] is on record as “very good herbicidal activity”. In test [2], the “herbicidal activity … for rice crops” value is reported as “very good herbicidal activity”.

These data come from patent US20030224942A1, “Alkylamino-1,3,5-triazines, processes for their preparation and their use as herbicides and plant growth regulators” (priority 2001, published 2003).
